The values that follow come from patent EP0234708A1, “Tetrahydrocarbazole 1-alkanoic acids” (MERCK FROSST CANADA INC., priority 1986, dated 1987).

Structures are written as SMILES. Bounds are passed on as bounds.

The target in one test is T1, Human Platelets (Homo sapiens, UniProt P21731).
T1 sequence (P21731 1-343): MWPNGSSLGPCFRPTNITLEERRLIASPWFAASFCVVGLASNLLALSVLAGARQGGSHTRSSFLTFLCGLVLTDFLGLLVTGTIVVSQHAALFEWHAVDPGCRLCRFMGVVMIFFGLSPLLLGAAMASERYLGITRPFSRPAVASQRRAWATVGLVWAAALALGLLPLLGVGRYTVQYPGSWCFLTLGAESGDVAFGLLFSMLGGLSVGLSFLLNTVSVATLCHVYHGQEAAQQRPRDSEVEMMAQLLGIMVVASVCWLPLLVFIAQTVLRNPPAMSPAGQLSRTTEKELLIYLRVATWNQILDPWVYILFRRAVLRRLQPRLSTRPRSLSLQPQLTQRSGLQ
Nature of the test: Inhibition of induced threshold aggregation of human platelets (aggregating agent U44069, platelet rich plasma). The class given is cell-based. Particulars: for IC50: human platelet rich plasma, threshold aggregation induced by U44069, read-out: Inhibition of platelet aggregation (IC50 in µg/ml) (converted). As to the method:
Inhibition of Induced Threshold Aggregation of Human
Human platelet rich plasma (PRP) is prepared from venous blood of male volunteers who have taken no medication for ten days prior to test. […] The supernatant (PRP) is transferred into plastic tubes. Platelet poor plasma (PPP) is obtained by centrifuging the residual blood cells at 4000 g for ten minutes. PRP is left to stand at least one half hour prior to testing.
Platelet Aggregation is measured using a Payton Aggregometer and Recorder. […] Drug vehicle (control), or a drug concentration is then added in a volume of 0.5 microliter. After one minute, the aggregating agent (U44069, 9,11-dideoxy-9α,11α-epoxymethano PGF 2a ) is added to the cuvette in a volume of 25 microliters. Recording is continued until the maximal response is obtained.
The threshold (approximately 20 - 30% of maximum) aggregation concentration of the agonist to be used is first determined in the presence of the drug vehicle (control). […] All drugs are dissolved in dimethylsulfoxide.
The height of the aggregation response (measured in divisions of the recorder paper, 1 division × 2.5 mm) in the presence of the drug is recorded, and calculated as percent inhibition of the mean height of the control threshold responses.

The subject of test [1] is Guinea Pig Tracheal Chain. Nature of the test: Estimation of pA2 values in guinea pig tracheal chain (contractile agonist U-44069). Also noted: species or system guinea pigs. The note with it: for pA2 / Kb: guinea pig tracheal chain, antagonism of U-44069 contraction, logarithmic scale; for Kb: Cavia porcellus; for prostanoid antagonist activity (statement in words): Table 4 data (platelet aggregation and pA2). The text has this:
Estimation of pA2 Values in Guinea Pig Tracheal Chain
Male albino Hartley strain guinea pigs (300-350 gm) were sacrificed by a blow to the head and exsanguinated. The trachea was removed, freed of extraneous tissue and sectioned into rings of 1-2 mm thickness. Five rings were tied together in series, ensuring that the tracheal muscle lay in the same vertical plane, and the cartilage of each ring then separated at a point directly opposite the muscle. The chains were suspended under 1 gm resting tension in modified Krebs solution (NaCl, 6.87; NaHCO3, 2.1; dextrose, 2.1; KC1, 0.32; CaCl2, 0.28; MgSO4, 7H 0, 0.11; KH2PO4, 0.16; gm/L: equilibrated with 5% C02 in O2 for 1 hour) containing indomethacin (1.4 x 10^-5M) to suppress endogenous protaglandin synthesis, Organ bath temperature was maintained at 37°C and 5% C02 in 02 diffused continously. Isometric tension changes were recorded from a Gould-Statham (UTC 2) force displacement transducer connected to a Beckman Type R Dynograph. For assay purposes initial maximal contractions were elicited with a high concentration of the contractile agonist [U-44069, 9.11-dideoxy-9α,11α-epoxymethano PGF2α] and the tissue subsequently washed at intervals until tension returned to baseline. Agonist dose response curves were obtained using a cumulative-dose schedule (4-8 doses) and the preparations then washed at regular intervals until baseline tension was recorded. After an appropriate interval (1-1.5 hrs) agonist dose response curves were repeated in the presence of antagonist drug concentrations. […] EC50 values were obtained by regression analysis and used to calculate 'apparent' and Schild Plot pA2 values by the method of Tallarida and Murray 1981.

With `O=C(O)CC1CCCc2c1n(Cc1ccc(Cl)cc1)c1ccc(F)cc21` (single isomer, unassigned; (-)) [Compound 3, (-)9-p-chlorobenzyl-6-fluoro-1,2,3,4-tetrahydro-carbazol-1-yl-acetic acid], on Human Platelets, the IC50 is 134 nM. The pA2 in test [1] is listed as 8.0.
For the compound `COc1ccc2c(c1)c1c(n2Cc2ccc(Cl)cc2)CC(C(=O)O)CC1` (stereo not drawn) [B], the IC50 at Human Platelets is more than 81100 nM. For the same compound, in test [1], the Kb was more than 1000 nM and the “prostanoid antagonist activity (statement in words)” value (shortened to “prostanoid antagonist activity”) is reported as “no significant activity”.
For the compound `COc1ccc2c(c1)c1cccc(CC(=O)O)c1n2Cc1ccc(Cl)cc1` [C], on Human Platelets, the IC50 is more than 79000 nM. Also, in test [1], the Kb is 263 nM and the “prostanoid antagonist activity” value is listed as “does not possess any significant activity”.
As to `O=C(O)CC1CCCc2c1n(Cc1ccc(Cl)cc1)c1ccc(F)cc21` (stereo not drawn) [Compound 1, 9-p-chlorobenzyl-6-fluoro-1,2,3,4-tetrahydrocarbazol-1-yl-acetic acid], at Human Platelets, the IC50 was 80.7 nM. Moreover, the pA2 in test [1] is on record as 8.6.
For `COc1ccc2c(c1)c1c(n2Cc2ccc(Cl)cc2)C(CC(=O)O)CCC1` (stereo not drawn) [Compound 2, 9-p-chlorobenzyl-6-methoxy-1,2,3,4-tetrahydrocarbazol-1-yl-acetic acid], the IC50 at Human Platelets is 782 nM. Further, the Kb in test [1] is 3.98 nM.
With `COc1ccc(Cn2c3c(c4cc(F)ccc42)CCCC3CC(=O)O)cc1` (stereo not drawn) [Compound 6, 9-p-methoxybenzyl-6-fluoro-1,2,3,4-tetrahydrocarbazol-1-yl-acetic acid], the IC50 on Human Platelets was 408 nM. Moreover, the Kb in test [1] was 2 nM.
In the case of `O=C(O)CC1CCCc2c1n(Cc1ccc(Cl)c(Cl)c1)c1ccc(F)cc21` (stereo not drawn) [Compound 7, 9-(3,4-dichloro)benzyl-6-fluoro-1,2,3,4-tetrahydro-carbazol-1-yl-acetic acid], the IC50 on Human Platelets was 222 nM. The Kb in test [1] is 5.01 nM.
Regarding `CC(c1ccccc1)n1c2c(c3cc(F)ccc31)CCCC2CC(=O)O` (stereo not drawn) [Compound 8, 9-[1-(1-phenyl)ethyl]-6-fluoro-1,2,3,4-tetrahydro-carbazol-1-yl-acetic acid], the IC50 on Human Platelets is 256 nM. Further, in test [1], the Kb is more than 1000 nM.
Taken in the same sequence, the figures for `O=C(O)CC1CCCc2c1n(Cc1ccc(Cl)cc1)c1ccccc21` (stereo not drawn) [Compound 9, 9-p-chlorobenzyl-1,2,3,4-tetrahydrocarbazol-1-yl-acetic acid] were 141 nM and 1.26 nM.
In the same order, the values of `O=C(O)CC1CCCc2c1n(Cc1ccc(Cl)cc1)c1ccc(Cl)cc21` (stereo not drawn) [Compound 10, 9-p-chlcrobenzyl-6-chloro-1,2,3,4-tetrahydrocarbazol-1-yl-acetic acid] are 258 nM and 10 nM.
Turning to `Cc1cccc2c3c(n(Cc4ccc(Cl)cc4)c12)C(CC(=O)O)CCC3` (stereo not drawn) [Compound 11, 9-p-chlorobenzyl-8-methyl-l,2,3,4-tetrahydrocarbazol-1-yl-acetic acid], the IC50 at Human Platelets is 272 nM. Moreover, the Kb in test [1] was 0.316 nM.
For `O=C(O)CC1CCCc2c1n(Cc1ccc(Cl)cc1)c1ccc(Br)cc21` (stereo not drawn) [Compound 12, 6-bromo-9-p-chlorobenzyl-l,2,3,4-tetrahydrocarbazol-l-yl-acetic acid], on Human Platelets, the IC50 was 208 nM. The Kb in test [1] is 12.6 nM.
In the same order, the values of `Cc1ccc2c(c1)c1c(n2Cc2ccc(Cl)cc2)C(CC(=O)O)CCC1` (stereo not drawn) [Compound 13, 9-p-chlorobenzyl-6-methyl-1,2,3,4-tetrahydrocarbazol-1-yl-acetic acid] are 217 nM and 25.1 nM.
Consider `O=C(O)CC1CCCc2c1n(Cc1ccc(Cl)cc1)c1c(F)cccc21` (stereo not drawn) [Compound 14, 9-p-chlorobenzyl-8 fluoro-1,2,3,4-tetrahydrocarbazol-1-yl-acetic acid], for which the IC50 on Human Platelets is 215 nM. Besides, the Kb in test [1] is 0.398 nM.
Taken in the same sequence, the figures for `O=C(O)CC1CCCc2c1n(Cc1ccc(Cl)cc1)c1cccc(F)c21` (stereo not drawn) [Compound 16, 9-p-chlorobenzyl-5-fluoro-1,2,3,4-tetrahydrocarbazol-1-yl-acetic acid] were 457 nM and 1.26 nM.
On to `O=C(O)CC1CCCc2c1n(Cc1ccc(Cl)cc1)c1c(Cl)cc(Cl)cc21` (stereo not drawn) [Compound 19, 9-p-chlorobenzyl-6,8-dichloro-1,2,3,4-tetrahydro-carbazol-1-yl-acetic acid], for which, on Human Platelets, the IC50 is 166 nM. For the same compound, the Kb in test [1] was 63.1 nM.
In the case of `CC(C(=O)O)C1CCCc2c1n(Cc1ccc(Cl)cc1)c1ccc(F)cc21` (stereo not drawn) [Compound 20, 2-[9-p-chlorobenzyl-6-fluoro-1,2,3,4-tetrahydro-carbazol-1-yl-]propanoic acid], on Human Platelets, the IC50 is 803 nM. Also, in test [1], the Kb was 158 nM.
Regarding `COc1ccc2c(c1)c1c(n2Cc2ccc(Cl)cc2)CC(CC(=O)O)CC1` (stereo not drawn) [Compound A, reference compound], on Human Platelets (compared with compound 2), the “times less potent as an inhibitor of platelet aggregation” value is listed as approximately 12. Moreover, on Human Platelets, the IC50 is 9120 nM. Also, the Kb in test [1] is 158 nM. For the same compound, the “pA2 is a factor less than that of compound 2” value in test [1] (compared with compound 2, printed as antilog of 1.6) is listed as 14.
As for `O=C(O)CC1CCCc2c1[nH]c1ccc(F)cc21` (stereo not drawn) [Compound F, 6-fluoro-1,2,3,4-tetrahydrocarbazol-1-yl-acetic acid], the IC50 at Human Platelets is 13800 nM. Besides, in test [1], the Kb was more than 1000 nM and the “prostanoid antagonist activity” value was “severe loss of activity”.
In the same order, the values of `O=C(O)CC1CCCc2c1n(CCc1ccc(Cl)cc1)c1ccc(F)cc21` (stereo not drawn) [Compound H, 9-[1-(2-p-chlorophenyl)ethyl]-6-fluoro-1,2,3,4-tetra-hydrocarbazol-1-yl-acetic acid] are 35200 nM, 158 nM and “serious loss of activity”.
`COc1ccc2c(c1)c1c(n2Cc2ccc(Cl)cc2)CCCC1C(=O)O` (stereo not drawn) [D]: in test [1], the Kb is more than 1000 nM and the “prostanoid antagonist activity” value is “severe loss of activity”.
`COc1ccc2c(c1)c1c(n2Cc2ccc(Cl)cc2)C(C(=O)O)CCC1` (stereo not drawn) [E]: the IC50 at Human Platelets is 11400 nM. In test [1], the Kb was 219 nM and the “prostanoid antagonist activity” value was “severe loss of activity”.
Turning to `CC(C)n1c2c(c3cc(F)ccc31)CCCC2CC(=O)O` (stereo not drawn) [G, 6-fluoro-9-isopropyl-1,2,3,4-tetrahydrocarbazol-1-yl-acetic acid], on Human Platelets, the IC50 is 47000 nM. In test [1], the Kb was more than 1000 nM and the “prostanoid antagonist activity” value is on record as “almost completely lost activity”.
